Test results reported in paper PMC9605770, “Molecular docking and antihypertensive effects of a novel angiotensin-I converting enzyme inhibitory peptide from yak bone” (Frontiers in Nutrition, 2022).
Where two headings read alike, the source gives them in different places. Where a SMILES comes first, the peptide text is derived from it.

Columns and labels:
[1] = In vitro gastrointestinal digestion of the peptide; format: in vitro ADME
Procedure: Gastrointestinal digestion was evaluated according to the method of Dang et al. ([15]) and Mulet-Cabero et al. ([18]) with minor modification. Simulated gastric juice (pH 2.0) and simulated intestinal fluid mixture (pH 7.6) were added to peptide solution and incubated at 37°C for 2 h, respectively.

[2] = test system: ACE; details: read-out: IC50 of ACE inhibition, cited from earlier work
Description: Therefore, it was meaningful to study the ACE inhibitory activity of SASVIPVSAVRA. || Generally, the presence of amino acids (Val, Ile) with hydrophobic branches would increase the ACE inhibitory activity ([26]). Therefore, the Val residue and Ile residue in SASVIPVSAVRA may contribute to the ACE activity of the peptide. […] The peptide SASVIPVSAVRA isolated from the yak bone hydrolysate also contained the tripeptide above-mentioned (VIP). The ACE inhibitory activity may also be due to the presence of ACE inhibitor VIP in its structure. Howev ...

[3] = test system: spontaneously hypertensive rats (SHRs); assay: Antihypertensive effect in SHRs (tail-cuff SBP); format: in vivo, rat; details: oral, positive control group, 10 mg/kg BW, n = 6 per group
Procedure: The systolic blood pressure (SBP) changes in the SHRs were measured by the tail-cuff method to determine the antihypertensive effect of ser-ala-ser-val-ile-pro-val-ser-ala-val-arg-ala (SASVIPVSAVRA) in vivo. Twenty female SHRs, weighing 230 ± 15 g and the SBP exceeding 190 mmHg, were obtained from Beijing Vital River Laboratory Animal Technology Co., Ltd. (China).
The SHRs were free to eat and drink at 25 ± 4°C and a 40 ± 6% humidity. To get the rats to adapt to the environment, the systolic blood pressure was measured once a day for 1 week. After a week of adaptation, the SHRs were randomly divided into three groups with each group containing 6 SHRs: the control group (sterilized water), captopril group (10 mg/kg captopril BW), SASVIPVSAVRA (30 mg/kg SASVIPVSAVRA BW). The effect of ACE inhibitors on SBP were measured by the Softron BP non-invasive blood pressure monitor (Softron BP-2000, Tokyo, Japan) at 0, 2, 4, and 6 h after oral administration ([1]), The measurements were repeated five times, the recordings were reported as mean ± standard deviation (SD). All animal procedures used in this trial were approved by the Institutional Animal Care and Use Committee of Hangzhou Medical College (Approval No. ZJCLA-IACUC-20010014).

[4] = target: T1, angiotensin-converting enzyme (ACE) (UniProt P12822)
T1 sequence: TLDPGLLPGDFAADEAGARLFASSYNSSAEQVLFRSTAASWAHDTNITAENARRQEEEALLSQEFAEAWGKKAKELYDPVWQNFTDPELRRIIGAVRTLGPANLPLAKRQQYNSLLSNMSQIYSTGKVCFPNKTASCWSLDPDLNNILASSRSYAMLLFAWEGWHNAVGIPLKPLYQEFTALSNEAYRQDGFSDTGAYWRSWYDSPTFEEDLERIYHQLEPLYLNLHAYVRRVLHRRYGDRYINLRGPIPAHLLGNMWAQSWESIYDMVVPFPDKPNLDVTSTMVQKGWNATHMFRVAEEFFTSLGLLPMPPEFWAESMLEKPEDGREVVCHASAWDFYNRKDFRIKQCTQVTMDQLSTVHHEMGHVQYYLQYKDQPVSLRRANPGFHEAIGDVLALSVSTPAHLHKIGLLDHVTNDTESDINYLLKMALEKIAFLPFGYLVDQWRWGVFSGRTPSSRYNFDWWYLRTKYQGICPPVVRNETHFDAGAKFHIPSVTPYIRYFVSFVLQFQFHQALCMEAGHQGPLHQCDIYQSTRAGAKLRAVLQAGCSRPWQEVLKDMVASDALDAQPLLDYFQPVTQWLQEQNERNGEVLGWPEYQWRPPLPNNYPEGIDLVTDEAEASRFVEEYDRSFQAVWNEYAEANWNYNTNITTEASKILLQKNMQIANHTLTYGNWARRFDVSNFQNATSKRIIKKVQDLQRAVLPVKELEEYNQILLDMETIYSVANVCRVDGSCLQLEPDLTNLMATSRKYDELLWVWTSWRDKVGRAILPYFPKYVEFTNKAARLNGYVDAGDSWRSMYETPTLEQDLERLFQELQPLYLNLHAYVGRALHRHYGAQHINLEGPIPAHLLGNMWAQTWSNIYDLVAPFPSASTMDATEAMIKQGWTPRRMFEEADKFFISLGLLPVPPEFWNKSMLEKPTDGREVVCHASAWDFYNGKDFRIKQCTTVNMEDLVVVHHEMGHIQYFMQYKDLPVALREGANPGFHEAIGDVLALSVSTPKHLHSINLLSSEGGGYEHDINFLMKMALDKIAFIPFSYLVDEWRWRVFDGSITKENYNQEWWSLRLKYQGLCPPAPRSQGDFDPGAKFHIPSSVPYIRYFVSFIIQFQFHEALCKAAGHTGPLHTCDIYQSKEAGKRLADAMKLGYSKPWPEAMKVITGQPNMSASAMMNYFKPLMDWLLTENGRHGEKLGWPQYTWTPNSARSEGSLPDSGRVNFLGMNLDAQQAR

For `CC[C@H](C)[C@H](NC(=O)[C@@H](NC(=O)[C@H](CO)NC(=O)[C@H](C)NC(=O)[C@@H](N)CO)C(C)C)C(=O)N1CCC[C@H]1C(=O)N[C@H](C(=O)N[C@@H](CO)C(=O)N[C@@H](C)C(=O)O)C(C)C` [SASVIPVSA] (H-SASVIPVSA-OH), the “Metabolite found in the digestion sample” value ([1]; digestion of SASVIPVSAVRA, simulated gastric juice pH 2.0 and intestinal fluid pH 7.6, 37°C, peak area by MS) was “main metabolite”.

For `CC[C@H](C)[C@H](NC(=O)[C@@H](NC(=O)[C@H](CO)NC(=O)[C@H](C)NC(=O)[C@@H](N)CO)C(C)C)C(=O)N1CCC[C@H]1C(=O)N[C@H](C(=O)N[C@@H](CO)C(=O)N[C@@H](C)C(=O)N[C@H](C(=O)N[C@@H](CCCNC(=N)N)C(=O)N[C@@H](C)C(=O)O)C(C)C)C(C)C` [SASVIPVSAVRA, ser-ala-ser-val-ile-pro-val-ser-ala-val-arg-ala] (H-SASVIPVSAVRA-OH), the “Digestive stability (peak of parent peptide in digested samples)” value ([1]; simulated gastric juice pH 2.0 and simulated intestinal fluid pH 7.6, 37°C, 2 h each, MS (TIC chromatography)) was “easily digested”.

For IVVE, the IC50 ([2]; reported peptides) is listed as 315 µM.

In the case of QLLLQQ, the IC50 ([2]; reported peptides) is given as 75 µM.

In the case of SGGSYADELVSTAK, the IC50 ([2]; reported ACE peptide) is given as 0.093 µM.

With `C[C@H](CS)C(=O)N1CCC[C@H]1C(=O)O` [captopril] the “Maximum reduction of systolic blood pressure” value [3] was 14.9%.

B1: ser-ala-ser-val-ile-pro-val-ser-ala-val-arg-ala (…) (peptide)
peptide: SASVIPVSAVRA
B1 gave an IC50 of ACE inhibitory activity (substrate HHL, HEPES buffer with 300 mM NaCl, pH 8.3, 37°C, HPLC) [4] of 54.2 μM.
